Results taken from patent EP0619297B1, “Fungicides for the control of take-all desease of plants” (MONSANTO COMPANY, priority 1993, dated 1994).
Converted amounts (≈) assume the structure as drawn. Read-outs that look alike come from different tables or passages of the source.

Columns and labels:
[1] = tested on: Gaeumannomyces graminis var. tritici (Ggt); assay: In vitro assay: mycelial growth on minimal media agar plates (Percent Inhibition; IC50); format: cell-based; conditions: for inhibition at 0.1 ppm: read-out: In vitro(ppm) 0.1, Percent Inhibition; for inhibition at 1 ppm: read-out: In vitro(ppm) 1, Percent Inhibition; for inhibition at 10 ppm: read-out: In vitro(ppm) 10, Percent Inhibition; for IC50: interpolated from percent inhibition at 1, 0.1, 0.01, 0.001 and 0.0001 ppm
Protocol: The test compounds (0.25 mL of an appropriate stock solution in acetone) are incorporated into 25 mL minimal media agar [prepared by autoclaving a solution of 17.5 g Czapek Dox broth (Difco), 7.5 g purified agar or Bacto-agar (Difco), and 500 mL distilled/deionized water, and then adding 50 µL of 1 mg/mL thiamine hydrochloride and 50 µL of 1 mg/mL biotin in 5% ethanol] and plates are prepared.
Each plate is inoculated by placing in a triangular shape three 4-mm plugs of Gaeumannomyces graminis var. tritici (Ggt) grown on the minimal media agar described above. The plates are incubated in the dark at 19 - 20 °C for 4 to 5 days. The growth of the fungus is measured as the diameter of the mycelial growth. The result is expressed as Percent Inhibition, calculated as [1 - [(mm growth on treated plate - 4)/(mm growth on control plate - 4)]] x 100.
To determine IC5O values, an in vitro assay was run on each compound at the concentrations of 1, 0.1, 0.01, 0.001, and 0.0001 ppm. The percent inhibition was calculated for each concentration using the equation described in the in vitro assay under the section on Biological Assays. Using the two ordered pairs of (concentration, % inhibition) that bracket 50% inhibition of fungal growth, the concentration for 50% inhibition is calculated from the following equation. IC50 = [(50-I2 )C1 + (I1 -50)C2 ]/(I1 -I2 ), [formula] where C1 = 10C2.

Ggt = assay: In vivo assay: control of Ggt on wheat in 3-inch pots with infested soil, rated after four weeks;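 as to In vivo(ppm) 0.1, percent disease control: rate is mg active ingredient per pot in 3 mL solution not ppm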;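 as to In vivo(ppm) 0.5, percent disease control: rate is mg active ingredient per pot in 3 mL solution not ppm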; parameters: species or system Gaeumannomyces graminis var. tritici; conditions: Gaeumannomyces graminis, 672 h; for pest or weed control at 0.1 mg/pot: read-out: In vivo(ppm) 0.1, percent disease control; for pest or weed control at 0.02 mg/pot: read-out: In vivo(ppm) 0.02mg/pot, percent disease control; for pest or weed control at 0.5 mg/pot: read-out: In vivo(ppm) 0.5, percent disease control
Protocol: Compounds are tested for control of Ggt on 'Bergen' or 'Anza' varieties of wheat grown in 3-inch square pots containing soil infested with Ggt. The infestation is accomplished by mixing the soil with an inoculum prepared by growing Ggt on 1/4 strength potato dextrose agar (4.875 g potato dextrose agar, 5.0 g Bacto agar, 500 mL distilled, deionized water) in plates and using plugs from the plates to infest sterile oats (400 cc whole oats, 350 mL deionized water, autoclaved). After a one-month incubation period at room temperature, the oats are dried and mixed with the soil at 4% v/v. Four wheat seeds are placed on top of the soil in each pot. […] Five pots are used for each treatment level and the controls, which are untreated, inoculated and non-inoculated pots. After one hour drying time, the seeds are covered with more of the appropriate soil and a layer of vermiculite. The pots are placed in a growth chamber and watered each day. After four weeks, each pot is evaluated for evidence of disease by examination of the seminal roots of each plant under a dissecting microscope. A 0 to 5 rating scale having the following meanings is used: • 0 = no runner hyphae or lesions present • 1 = runner hyphae and a few small lesions present on <10% of root system • 2 = runner hyphae and small lesions present on 10 - 25% of root system • 3 = runner hyphae and lesions present on 25 - 50% of root system • 4 = runner hyphae and many, large, coalescing lesions on >50% of root system • 5 = root system and culm completely inundated with lesions and runner hyphae
From each set of five replicates a high or low score may be eliminated to assure the best representative scores are used to calculate a replicate mean by averaging the remaining scores. This mean score is then compared to the untreated control score and a percent disease control is calculated.

[2] = 0.1 ppm in agar, 19 - 20 °C, 4 to 5 days
[3] = 1 ppm in agar, 19 - 20 °C, 4 to 5 days
[4] = 10 ppm in agar, 19 - 20 °C, 4 to 5 days
[5] = rate 0.1 (head prints ppm, head line ends mg/pot), wheat, soil infested with Ggt, after four weeks, N = no control
[6] = rate 0.02mg/pot, wheat, soil infested with Ggt, after four weeks
[7] = rate 0.5 (head prints ppm, head line ends mg/pot), wheat, soil infested with Ggt, after four weeks, N = no control

Structure (SMILES) | inhibition at 0.1 ppm [1, 2] [%] | inhibition at 1 ppm [1, 3] [%] | inhibition at 10 ppm [1, 4] [%] | pest or weed control at 0.1 mg/pot (Ggt; [5]) [%] | inhibition at 0.1 ppm [1] [%] | inhibition at 1 ppm [1] [%] | inhibition at 10 ppm [1] [%] | pest or weed control at 0.02 mg/pot (Ggt; soil) [%] | pest or weed control at 0.1 mg/pot (Ggt; soil) [%] | pest or weed control at 0.5 mg/pot (Ggt; soil) [%] | IC50 [1] [ng/mL] | pest or weed control at 0.02 mg/pot (Ggt; [6]) [%] | pest or weed control at 0.5 mg/pot (Ggt; [7]) [%]
CCNC(=O)c1c(OC(C)(C)C)ccc2ccccc12 [Example 6, 2-(1,1-Dimethylethoxy)-N-ethyl-1-naphthalenecarboxamide] | 21 | 86 | 93 | 53 | – | – | – | – | – | – | – | – | –
CCNC(=O)c1c([Si](C)(C)C)ccc2ccsc12 [Example 43, N-ethyl 6-trimethylsilyl benzothiophene-7-carboxamide] | – | – | – | – | 98 | 100 | 100 | 50 | 79 | 88 | – | – | –
CCNC(=O)c1c(NC(C)(C)C)ccc2ccccc12 [Example 20, N-ethyl 2-[(1,1-dimethylethyl)amino]-1-naphthamide] | 80 | 98 | 100 | 24 | – | – | – | – | – | – | 71.6 (≈ 0.265 µM) | 5 | 61
CCNC(=O)c1c([Si](C)(C)C)n(C)c2ccccc12 [Example 10, N-Ethyl-1-Methyl-2-(trimethylsilyl)-1H-indole-3-carboxamide] | – | – | – | – | 13 | 80 | 85 | – | – | – | – | – | –
CCNC(=O)c1oc2ccccc2c1[Si](C)(C)C [Example 11, N-Ethyl-3-(trimethylsilyl)-2-benzofurancarboxamide] | – | – | – | – | 27 | 42 | 82 | – | – | – | – | – | –
CCCN(CCC)C(=O)c1c(OC(CC)(CC)CC)ccc2ccccc12 [Example 35, N,N-dipropyl 2-[(1,1-diethylpropyl)oxy]-1-naphthamide] | 0 | 19 | 95 | 0 | – | – | – | – | – | – | – | 0 | 1
CCNC(=O)C1=C([Si](C)(C)C)S(=O)(=O)c2ccccc21 [Example 15, N-Ethyl-2-(trimethylsilyl)benzo[b]thiophene-3-carboxamide 1,1-dioxide] | – | – | – | – | 10 | 30 | 83 | – | – | – | – | – | –
CCNC(=O)c1c([Si](C)(C)C)ccc2occc12 [Example 42, N-ethyl 5-trimethylsilyl benzofuran-4-carboxamide] | – | – | – | – | 90 | 98 | 100 | 68 | 87 | 91 | – | – | –
CCNC(=O)c1c([Si](C)(C)C)sc2ccccc12 [Example 8, N-Ethyl-2-(trimethylsilyl)-benzo[b]thiophene-3-carboxamide] | – | – | – | – | 97 | 93 | 100 | – | 43 | 71 | – | – | –
CCNC(=O)c1c([Si](C)(C)C)oc2ccccc12 [Example 12, N-Ethyl-2-(trimethylsilyl)-3-benzofurancarboxamide] | – | – | – | – | 97 | 97 | 100 | – | 85 | 97 | – | – | –
C=CCNC(=O)c1c(OC(CC)(CC)CC)ccc2ccccc12 [Example 33, N-allyl 2-[(1,1-diethylpropyl)oxy]-1-naphthamide] | 97 | 100 | 100 | 45 | – | – | – | – | – | – | 6.47 (≈ 0.0199 µM) | 19 | 59
CCCNC(=O)c1c(NC(C)(C)C)ccc2ccccc12 [Example 21, N-propyl 2-[(1,1-dimethylethyl)amino]-1-naphthamide] | 95 | 97 | 97 | 60 | – | – | – | – | – | – | 8.5 (≈ 0.0299 µM) | 35 | 78
CCNC(=O)c1c([Si](C)(C)C)ccc2sccc12 [Example 41, N-ethyl 5-trimethylsilyl benzothiophene-4-carboxamide] | – | – | – | – | 98 | 98 | 100 | 75 | 99 | 100 | – | – | –
CCNC(=O)c1c(NC(C)(C)CC)ccc2ccccc12 [Example 22, N-ethyl 2-[(1,1-dimethylpropyl)amino]-1-naphthamide] | 95 | 98 | 98 | 41 | – | – | – | – | – | – | 9.18 (≈ 0.0323 µM) | 11 | 70
CC(C)N(O)C(=O)c1c([Si](C)(C)C)sc2ccccc12 [Example 17, N-Hydroxy-N-(1-methylethyl)-2-(trimethylsilyl)benzo[b]-thiophene-3-carboxamide] | – | – | – | – | 96 | 100 | 100 | – | 42 | 46 | – | – | –
CCN(CC)C(=O)c1c([Si](C)(C)C)sc2ccccc12 [Example 14, N,N-Diethyl-2-(trimethylsilyl)benzo[b]thiophene-3-carboxamide] | – | – | – | – | 42 | 92 | 100 | – | 76 | 94 | – | – | –
CCCNC(=O)c1c(NC(C)(CC)CC)ccc2ccccc12 [Example 24, N-propyl 2-[(1,1-diethylethyl)amino]-1-naphthamide] | 95 | 95 | 100 | 38 | – | – | – | – | – | – | 0.814 (≈ 0.00261 µM) | 32 | 76
C=CCNC(=O)c1c([Si](C)(C)C)sc2ccccc12 [Example 13, N-2-Propenyl-2-(trimethylsilyl)benzo[b]thiophene-3-carboxamide] | – | – | – | – | 100 | 100 | 100 | – | 84 | 94 | – | – | –
CCCNC(=O)c1c(NC(C)(C)CC)ccc2ccccc12 [Example 25, N-propyl 2-[(1,1-dimethylpropyl)amino]-1-naphthamide] | 95 | 100 | 100 | 57 | – | – | – | – | – | – | 1 (≈ 0.00335 µM) | 17 | 78
CCNC(=O)c1c(OC2(C)CCCCC2)ccc2ccccc12 [Example 38, N-ethyl 2-[(1-methyl-1-cyclohexyl)oxy]-1-naphthamide] | 0 | 43 | 30 | – | – | – | – | – | – | – | – | – | –
CCNC(=O)c1c([Si](C)(C)C)ccc2ccoc12 [Example 44, N-ethyl 6-trimethylsilyl benzofuran-7-carboxamide] | – | – | – | – | 98 | 98 | 100 | – | – | – | – | – | –
